Assays:
Experiment in all cases: Uptake transporter inhibition
Format in all cases: in vitro ADME
OAT1 = target: T1, OAT1 (Homo sapiens, UniProt Q4U2R8); details: probe substrate p-aminohippuric acid
T1 sequence (Q4U2R8 1-563): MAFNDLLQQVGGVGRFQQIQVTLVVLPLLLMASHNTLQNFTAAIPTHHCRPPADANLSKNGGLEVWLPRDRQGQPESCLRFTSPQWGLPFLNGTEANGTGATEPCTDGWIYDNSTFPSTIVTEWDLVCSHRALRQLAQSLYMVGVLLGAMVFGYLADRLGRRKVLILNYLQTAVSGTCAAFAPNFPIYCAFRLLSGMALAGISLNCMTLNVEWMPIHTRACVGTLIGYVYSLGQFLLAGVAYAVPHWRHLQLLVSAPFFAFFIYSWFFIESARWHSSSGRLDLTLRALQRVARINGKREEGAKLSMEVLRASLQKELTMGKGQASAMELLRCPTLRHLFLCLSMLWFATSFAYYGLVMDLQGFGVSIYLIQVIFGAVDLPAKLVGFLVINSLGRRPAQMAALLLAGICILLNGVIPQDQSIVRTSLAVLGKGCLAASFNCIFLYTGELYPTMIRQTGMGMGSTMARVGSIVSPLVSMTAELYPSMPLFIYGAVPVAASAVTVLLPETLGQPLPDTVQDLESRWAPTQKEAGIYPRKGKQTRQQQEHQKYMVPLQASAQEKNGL
Text: (§1) The inhibition of cytochrome P450 (CYP) isoforms and a range of cellular transporters (except multidrug and toxin extrusion [MATE] proteins), as well as the induction of CYP isoforms were investigated using previously described methods.

OATP1B1 = target: T2, OATP1B1 (Homo sapiens, UniProt Q9Y6L6); details: probe substrate pravastatin
T2 sequence (Q9Y6L6 1-691): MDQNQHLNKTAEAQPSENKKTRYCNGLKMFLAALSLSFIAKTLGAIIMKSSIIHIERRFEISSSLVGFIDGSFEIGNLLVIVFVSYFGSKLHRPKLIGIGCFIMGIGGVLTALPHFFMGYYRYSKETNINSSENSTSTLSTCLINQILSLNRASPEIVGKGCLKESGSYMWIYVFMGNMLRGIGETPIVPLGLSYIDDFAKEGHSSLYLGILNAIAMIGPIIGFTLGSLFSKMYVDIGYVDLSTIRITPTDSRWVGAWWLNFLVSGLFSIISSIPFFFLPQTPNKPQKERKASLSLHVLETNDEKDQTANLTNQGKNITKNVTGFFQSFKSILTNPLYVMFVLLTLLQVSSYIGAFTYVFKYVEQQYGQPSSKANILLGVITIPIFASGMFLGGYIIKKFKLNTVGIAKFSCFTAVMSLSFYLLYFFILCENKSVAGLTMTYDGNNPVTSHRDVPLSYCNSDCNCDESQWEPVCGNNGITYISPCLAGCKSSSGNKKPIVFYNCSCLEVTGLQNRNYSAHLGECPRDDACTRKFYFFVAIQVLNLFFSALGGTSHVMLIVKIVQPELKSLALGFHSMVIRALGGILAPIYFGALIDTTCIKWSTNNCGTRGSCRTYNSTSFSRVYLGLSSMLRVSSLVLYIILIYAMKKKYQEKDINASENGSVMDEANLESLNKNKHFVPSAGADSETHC
Text: as §1

OAT3 = target: T3, OAT3 (Homo sapiens, UniProt Q8TCC7); details: probe substrate estrone-3-sulphate
T3 sequence (Q8TCC7 1-542): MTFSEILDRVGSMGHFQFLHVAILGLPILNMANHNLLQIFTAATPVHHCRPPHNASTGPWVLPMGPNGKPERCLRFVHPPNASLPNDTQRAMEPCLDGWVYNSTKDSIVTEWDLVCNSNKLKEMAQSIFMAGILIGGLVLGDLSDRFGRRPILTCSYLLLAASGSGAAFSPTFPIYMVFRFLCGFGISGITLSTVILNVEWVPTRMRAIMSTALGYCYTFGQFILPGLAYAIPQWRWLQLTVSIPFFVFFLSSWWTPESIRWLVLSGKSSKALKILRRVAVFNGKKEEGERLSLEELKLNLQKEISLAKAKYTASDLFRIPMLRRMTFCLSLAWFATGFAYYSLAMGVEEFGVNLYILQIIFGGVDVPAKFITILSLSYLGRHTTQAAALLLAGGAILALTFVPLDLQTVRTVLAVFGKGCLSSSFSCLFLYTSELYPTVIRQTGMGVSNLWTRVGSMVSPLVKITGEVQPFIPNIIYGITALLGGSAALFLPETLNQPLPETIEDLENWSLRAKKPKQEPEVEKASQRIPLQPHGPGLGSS
Text: as §1

OATP1B3 = target: T4, OATP1B3 (Homo sapiens, UniProt Q9NPD5); details: probe substrate pravastatin
T4 sequence (Q9NPD5 1-702): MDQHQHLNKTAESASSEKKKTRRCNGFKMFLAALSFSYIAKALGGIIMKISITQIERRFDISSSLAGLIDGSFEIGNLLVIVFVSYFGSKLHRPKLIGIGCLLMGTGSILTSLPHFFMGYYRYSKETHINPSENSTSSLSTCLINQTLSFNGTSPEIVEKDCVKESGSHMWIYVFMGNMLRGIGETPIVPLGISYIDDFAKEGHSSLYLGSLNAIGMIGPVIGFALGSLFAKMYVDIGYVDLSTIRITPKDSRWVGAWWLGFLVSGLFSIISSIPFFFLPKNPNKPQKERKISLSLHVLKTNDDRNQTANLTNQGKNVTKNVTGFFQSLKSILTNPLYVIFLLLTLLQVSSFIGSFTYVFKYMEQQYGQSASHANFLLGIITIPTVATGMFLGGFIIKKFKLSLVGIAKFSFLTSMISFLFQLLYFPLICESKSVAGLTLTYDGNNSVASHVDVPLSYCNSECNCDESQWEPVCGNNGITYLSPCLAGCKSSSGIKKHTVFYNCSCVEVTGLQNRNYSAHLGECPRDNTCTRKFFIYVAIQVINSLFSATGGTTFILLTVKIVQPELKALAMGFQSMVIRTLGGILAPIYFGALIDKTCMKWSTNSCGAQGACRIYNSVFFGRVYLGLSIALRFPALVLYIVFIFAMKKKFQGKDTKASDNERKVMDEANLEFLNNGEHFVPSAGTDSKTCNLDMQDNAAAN
Text: as §1

Compound | IC50 (OAT1) [µM] | IC50 (OATP1B1) [µM] | IC50 (OAT3) [µM] | IC50 (OATP1B3) [µM]
CC1CS(=O)(=O)CCN1n1cc(SCC(N)C(=O)O)ccc1=O (stereo not drawn) [M-4] | > 5 | > 20 | > 5 | 10
CC1CS(=O)(=O)CCN1N (stereo not drawn) [M-6] | > 30 | > 50 | > 30 | > 50
CC1CS(=O)(=O)CCN1/N=C/c1ccc([N+](=O)[O-])o1 (stereo not drawn) [Nifurtimox, (E)-N-(3-methyl-1,1-dioxo-1,4-thiazinan-4-yl)-1-(5-nitrofuran-2-yl) methanimine, reference compound] | > 20 | > 50 | > 20 | > 50
